Measurements published in article PMC3507948, “Origin and Evolution of Retinoid Isomerization Machinery in Vertebrate Visual Cycle: Hint from Jawless Vertebrates” (PLoS ONE, 2012).

Experiments:
Assay type in all cases: cell-based
Lamprey RPE65 = molecular target: T1, Lamprey RPE65 (Petromyzon marinus, UniProt L0ATZ0); experiment: HEK293-F minimal visual cycle assay, normal-phase HPLC of saponified retinoids; details: co-expressed lamprey LRATb or bovine LRAT and bovine CRALBP; 2.5 µM all-trans retinol fed for 5 h; direct substrate is the retinyl ester formed in the cells
T1 construct: pVITRO2 with bovine CRALBP, expressed in HEK293-F cells with LRAT
T1 sequence (L0ATZ0 1-537): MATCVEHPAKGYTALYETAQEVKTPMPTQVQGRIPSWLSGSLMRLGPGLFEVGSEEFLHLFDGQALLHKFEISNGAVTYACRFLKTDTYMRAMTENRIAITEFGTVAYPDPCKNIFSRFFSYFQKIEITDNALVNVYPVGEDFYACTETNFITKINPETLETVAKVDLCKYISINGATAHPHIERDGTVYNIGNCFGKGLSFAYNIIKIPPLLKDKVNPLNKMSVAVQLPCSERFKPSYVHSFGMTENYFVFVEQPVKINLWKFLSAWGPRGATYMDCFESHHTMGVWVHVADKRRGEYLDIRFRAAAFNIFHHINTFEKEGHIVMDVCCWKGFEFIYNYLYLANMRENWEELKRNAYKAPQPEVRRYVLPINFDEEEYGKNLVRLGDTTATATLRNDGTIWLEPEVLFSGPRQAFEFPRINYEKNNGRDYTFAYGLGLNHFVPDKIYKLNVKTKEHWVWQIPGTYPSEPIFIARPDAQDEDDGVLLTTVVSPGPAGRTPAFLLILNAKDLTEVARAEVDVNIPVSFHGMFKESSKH

Lamprey LRATb = molecular target: T2, Lamprey LRATb (Petromyzon marinus, UniProt A0AAJ7TIF3); experiment: retinol esterification in HEK293-F cells, HPLC, retinyl esters as % of total retinoids; details: with 50 µM A922500 to block endogenous DGAT1; all-trans retinol added to cells
T2 construct: gene LOC116947134; full-length ORF cloned from adult female lamprey RPE (852 bp PCR product), 7-glycine tract at aa 160-166; pVITRO3, expressed in HEK293-F cells
T2 sequence (A0AAJ7TIF3 1-274): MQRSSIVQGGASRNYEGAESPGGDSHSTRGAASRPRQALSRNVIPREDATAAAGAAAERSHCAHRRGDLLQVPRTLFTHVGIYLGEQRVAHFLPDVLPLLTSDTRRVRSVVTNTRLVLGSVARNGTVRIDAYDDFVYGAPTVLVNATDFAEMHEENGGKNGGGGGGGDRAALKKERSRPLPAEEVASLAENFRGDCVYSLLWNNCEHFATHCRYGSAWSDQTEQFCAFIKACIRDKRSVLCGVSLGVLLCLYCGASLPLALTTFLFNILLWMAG

Ciona BCMOa (Ci-RPE65) [1] = molecular target: T3, Ciona BCMOa (Ci-RPE65) (Ciona intestinalis, UniProt Q2PE71); experiment: lycopene loss in lycopene-accumulating E. coli, reverse-phase HPLC; details: arabinose induction, 18 h; no retinal detected; data not shown
T3 construct: ORF from synthetic pUC57/ciBCMOa (Genscript), cloned in pBadTOPO, expressed in carotenoid-accumulating E. coli
T3 sequence (Q2PE71 1-553): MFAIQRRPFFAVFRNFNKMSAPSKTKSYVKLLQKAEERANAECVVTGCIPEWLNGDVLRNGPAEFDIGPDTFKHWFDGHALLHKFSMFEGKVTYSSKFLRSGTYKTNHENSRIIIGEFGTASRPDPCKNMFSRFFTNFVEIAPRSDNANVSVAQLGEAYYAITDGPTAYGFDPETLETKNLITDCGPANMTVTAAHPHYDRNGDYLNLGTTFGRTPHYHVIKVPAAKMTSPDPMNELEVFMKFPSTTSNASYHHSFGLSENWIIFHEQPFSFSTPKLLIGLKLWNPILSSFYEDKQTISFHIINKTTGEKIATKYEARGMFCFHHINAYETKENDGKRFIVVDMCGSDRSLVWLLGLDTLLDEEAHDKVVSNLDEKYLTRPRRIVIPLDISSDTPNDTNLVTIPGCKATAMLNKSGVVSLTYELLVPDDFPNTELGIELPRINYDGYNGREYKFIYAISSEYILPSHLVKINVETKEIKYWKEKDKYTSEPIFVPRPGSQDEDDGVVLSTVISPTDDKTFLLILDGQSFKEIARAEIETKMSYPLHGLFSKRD

[2] = molecular target: T4, Ciona BCMOb (Ci-BCMO1; ci-BCO) (Ciona intestinalis, UniProt Q2PE72); experiment: as above; details: arabinose induction; no retinal detected; printed as β-carotene or lycopene
T4 construct: expressed in carotenoid-accumulating E. coli
T4 sequence (Q2PE72 1-524): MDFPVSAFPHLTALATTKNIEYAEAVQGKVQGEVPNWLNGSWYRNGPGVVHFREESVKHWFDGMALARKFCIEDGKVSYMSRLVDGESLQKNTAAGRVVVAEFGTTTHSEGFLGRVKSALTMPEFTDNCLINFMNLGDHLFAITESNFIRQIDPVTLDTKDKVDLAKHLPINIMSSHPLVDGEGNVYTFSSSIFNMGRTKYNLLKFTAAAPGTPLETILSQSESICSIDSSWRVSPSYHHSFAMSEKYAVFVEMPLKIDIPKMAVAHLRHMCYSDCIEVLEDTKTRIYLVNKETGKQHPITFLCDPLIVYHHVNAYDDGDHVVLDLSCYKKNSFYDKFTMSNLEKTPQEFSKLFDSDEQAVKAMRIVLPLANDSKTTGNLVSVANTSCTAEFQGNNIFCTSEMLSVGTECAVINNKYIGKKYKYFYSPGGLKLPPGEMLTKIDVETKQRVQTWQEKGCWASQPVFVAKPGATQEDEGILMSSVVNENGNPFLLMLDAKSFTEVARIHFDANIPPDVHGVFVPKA

[3] = molecular target: T4, Ciona BCMOb (Ci-BCMO1; ci-BCO); experiment: β-carotene loss in β-carotene-accumulating E. coli, reverse-phase HPLC; details: arabinose induction; no retinal detected
Ciona BCMOa (Ci-RPE65) [4] = molecular target: T3, Ciona BCMOa (Ci-RPE65); experiment: as above; details: arabinose induction, 18 h; no retinal detected

## CC1=C(/C=C/C(C)=C/C=C\C(C)=C\CO)C(C)(C)CCC1 [11-cis retinol]
Lamprey RPE65
  HEK293-F minimal visual cycle assay, normal-phase HPLC of saponified retinoids: Cells transfected with lamprey RPE65 and lamprey LRATb were also able to produce 11-cis retinol

## CC1=C(/C=C/C(C)=C/C=C/C(C)=C/CO)C(C)(C)CCC1 [all-trans retinol]
Lamprey LRATb
  retinol esterification in HEK293-F cells, HPLC, retinyl esters as % of total ret: Catalytic activity of Lamprey LRATb in HEK293F cells in the presence of specific DGAT1 inhibitor

## CC(C)=CCC/C(C)=C/C=C/C(C)=C/C=C/C(C)=C/C=C/C=C(C)/C=C/C=C(C)/C=C/C=C(\C)CCC=C(C)C [lycopene]
Ciona BCMOa (Ci-RPE65) [1]
  lycopene loss in lycopene-accumulating E. coli, reverse-phase HPLC: the amount of lycopene (data not shown) or β-carotene in induced cells decreased significantly
[2]
  lycopene loss in lycopene-accumulating E. coli, reverse-phase HPLC: Quantification of β-carotene or lycopene in induced cell culture transformed with Ciona BCMOb (ci-BCO)

## CC1=C(/C=C/C(C)=C/C=C/C(C)=C/C=C/C=C(C)/C=C/C=C(C)/C=C/C2=C(C)CCCC2(C)C)C(C)(C)CCC1 [β-carotene]
[3]
  β-carotene loss in β-carotene-accumulating E. coli, reverse-phase HPLC: Ciona BCMOb (ci-BCO) also demonstrated significant carotenoid cleavage activity
Ciona BCMOa (Ci-RPE65) [4]
  β-carotene loss in β-carotene-accumulating E. coli, reverse-phase HPLC: the amount of lycopene (data not shown) or β-carotene in induced cells decreased significantly
